Measurements: patent US3957987A, “Compositions containing a carbonamidoquinoxaline-di-N-oxide and method of using same” (Bayer Aktiengesellschaft, priority 1971, dated 1976)
Converted amounts (≈) assume the structure as drawn.

Key:
Klebsiella 63 = experiment: Minimum inhibitory concentration in vitro, Klebsiella 63; format: cell-based
Description: (§1) As representative of the spectrum of antimicrobial activity for these compounds, the following representative minimum inhibitory concentrations shown on Tables A, B and C can be noted:
(§2) Minimum Inhibitory Concentrations In Vitro, in μg/ml of Medium

Klebsiella 8085 = experiment: Minimum inhibitory concentration in vitro, Klebsiella 8085; format: cell-based
Description: as §1, §2

[1] = tested on: Staphylococcus aureus 133; experiment: Minimum inhibitory concentration in vitro, Staphylococcus aureus 133; format: cell-based
Description: as §1, §2

Streptococcus pyogenes = experiment: Minimum inhibitory concentration in vitro, Streptococcus pyogenes; format: cell-based
Description: as §1, §2

Clostridium tetani = experiment: microbe, parasite or virus in culture; format: cell-based; conditions: read-out: minimum inhibitory concentration
Clostridium botulinum = experiment: microbe, parasite or virus in culture; format: cell-based; conditions: read-out: minimum inhibitory concentration
Mycoplasma MS = experiment: Minimum inhibitory concentration, Mycoplasma MS; format: cell-based
Description: (§3) As representative of the spectrum of antimicrobial activity for these compounds, the following representative minimum inhibitory concentrations shown on Tables A, B and C can be noted: […]

Mycoplasma S6 = experiment: Minimum inhibitory concentration, Mycoplasma S6; format: cell-based
Mycoplasma gran = experiment: Minimum inhibitory concentration, Mycoplasma gran; format: cell-based
[2] = tested on: Pasteurella multocida ATCC; experiment: Minimum inhibitory concentration, Pasteurella multocida ATCC; format: cell-based
[3] = tested on: Alcaligenes faecalis ATCC; experiment: Minimum inhibitory concentration, Alcaligenes faecalis ATCC; format: cell-based
[4] = tested on: Bordetella bronchiseptica; experiment: Minimum inhibitory concentration, Bordetella bronchiseptica; format: cell-based
Aeromonas liquefaciens = experiment: Minimum inhibitory concentration, Aeromonas liquefaciens; format: cell-based; conditions: Aeromonas hydrophila
Mycobacterium species = experiment: Minimum inhibitory concentration, Mycobacterium species; format: cell-based
Description: as §3

Escherichia coli C 165 = experiment: Minimum inhibitory concentration in vitro, Escherichia coli C 165; format: cell-based; conditions: C165
Description: as §1, §2

Escherichia coli A 261 = experiment: Minimum inhibitory concentration in vitro, Escherichia coli A 261; format: cell-based; conditions: A261
Description: as §1, §2

Proteus vulgaris = experiment: Minimum inhibitory concentration in vitro, Proteus vulgaris specieis; format: cell-based
Description: as §1, §2

Chick Fattening Test = format: in vivo; conditions: for Relative Weight Increase (%) after 14 days / Relative Weight Increase (%) after 28 days: control 100.0
Description: The use of these compounds as feed additives can be seen from the following feeding experiments (Table D).
Chicks in groups of 12 were kept in cages and supplied with water ad libitum and a complete chick feed into which was intimately mixed the indicated amount of the test compound.

| SMILES | MIC (Klebsiella 63) | MIC (Klebsiella 8085) | MIC [1] | MIC (Streptococcus pyogenes) | MIC (Clostridium tetani) | MIC (Clostridium botulinum) | MIC (Mycoplasma MS) | MIC (Mycoplasma S6) | MIC (Mycoplasma gran) | MIC [2] | MIC [3] | MIC [4] | MIC (Aeromonas liquefaciens) | MIC (Mycobacterium species) | MIC (Escherichia coli C 165) | MIC (Escherichia coli A 261) | further results |
| --- | --- | --- | --- | --- | --- | --- | --- | --- | --- | --- | --- | --- | --- | --- | --- | --- | --- |
| COC(=O)NN=Cc1c(C(=O)N2CCCCC2)[n+]([O-])c2ccccc2[n+]1[O-] [Example 10] | 100 µg/mL (≈ 268 µM) | 100 µg/mL (≈ 268 µM) | 100 µg/mL (≈ 268 µM) | 100 µg/mL (≈ 268 µM) | 10 µg/mL (≈ 26.8 µM) | 10 µg/mL (≈ 26.8 µM) | 100 µg/mL (≈ 268 µM) | 10 µg/mL (≈ 26.8 µM) | 10 µg/mL (≈ 26.8 µM) | 1 µg/mL (≈ 2.68 µM) | 100 µg/mL (≈ 268 µM) | 100 µg/mL (≈ 268 µM) | 100 µg/mL (≈ 268 µM) | 100 µg/mL (≈ 268 µM) |  |  |  |
| CCN(CC)C(=O)c1c(C=NNC(=O)OC)[n+]([O-])c2ccccc2[n+]1[O-] [Example 11] | 100 µg/mL (≈ 277 µM) | 100 µg/mL (≈ 277 µM) | 100 µg/mL (≈ 277 µM) | 100 µg/mL (≈ 277 µM) | 10 µg/mL (≈ 27.7 µM) | 10 µg/mL (≈ 27.7 µM) | 100 µg/mL (≈ 277 µM) | 10 µg/mL (≈ 27.7 µM) | 10 µg/mL (≈ 27.7 µM) | 1 µg/mL (≈ 2.77 µM) | 100 µg/mL (≈ 277 µM) | 100 µg/mL (≈ 277 µM) | 100 µg/mL (≈ 277 µM) | 100 µg/mL (≈ 277 µM) |  |  |  |
| COC(=O)NN=Cc1c(C(=O)N2CCCC2)[n+]([O-])c2ccccc2[n+]1[O-] [Example 12] | 100 µg/mL (≈ 278 µM) | 100 µg/mL (≈ 278 µM) | 10 µg/mL (≈ 27.8 µM) | 100 µg/mL (≈ 278 µM) | 10 µg/mL (≈ 27.8 µM) | 10 µg/mL (≈ 27.8 µM) | 100 µg/mL (≈ 278 µM) | 10 µg/mL (≈ 27.8 µM) | 10 µg/mL (≈ 27.8 µM) | 1 µg/mL (≈ 2.78 µM) | 100 µg/mL (≈ 278 µM) | 100 µg/mL (≈ 278 µM) | 100 µg/mL (≈ 278 µM) | 100 µg/mL (≈ 278 µM) | 100 µg/mL (≈ 278 µM) |  |  |
| CNC(=O)c1c(C=NNC(=O)OC)[n+]([O-])c2ccccc2[n+]1[O-] [Example 13] | 100 µg/mL (≈ 313 µM) | 10 µg/mL (≈ 31.3 µM) | 100 µg/mL (≈ 313 µM) | 100 µg/mL (≈ 313 µM) | 100 µg/mL (≈ 313 µM) | 100 µg/mL (≈ 313 µM) |  | 100 µg/mL (≈ 313 µM) | 100 µg/mL (≈ 313 µM) | 100 µg/mL (≈ 313 µM) | 100 µg/mL (≈ 313 µM) | 100 µg/mL (≈ 313 µM) | 100 µg/mL (≈ 313 µM) | 100 µg/mL (≈ 313 µM) | 100 µg/mL (≈ 313 µM) | 100 µg/mL (≈ 313 µM) | MIC (Proteus vulgaris): 100 µg/mL (≈ 313 µM) |
| COC(=O)NN=Cc1c(C(=O)NCCO)[n+]([O-])c2ccccc2[n+]1[O-] [Example 14] |  | 100 µg/mL (≈ 286 µM) | 100 µg/mL (≈ 286 µM) | 100 µg/mL (≈ 286 µM) | 100 µg/mL (≈ 286 µM) | 100 µg/mL (≈ 286 µM) |  | 100 µg/mL (≈ 286 µM) | 100 µg/mL (≈ 286 µM) | 100 µg/mL (≈ 286 µM) | 100 µg/mL (≈ 286 µM) | 100 µg/mL (≈ 286 µM) | 100 µg/mL (≈ 286 µM) |  |  |  |  |
| CCCNC(=O)c1c(C=NNC(=O)OC)[n+]([O-])c2ccccc2[n+]1[O-] [Example 15] | 100 µg/mL (≈ 288 µM) | 100 µg/mL (≈ 288 µM) | 100 µg/mL (≈ 288 µM) | 10 µg/mL (≈ 28.8 µM) | 100 µg/mL (≈ 288 µM) | 100 µg/mL (≈ 288 µM) |  | 100 µg/mL (≈ 288 µM) | 100 µg/mL (≈ 288 µM) | 100 µg/mL (≈ 288 µM) | 100 µg/mL (≈ 288 µM) | 100 µg/mL (≈ 288 µM) | 100 µg/mL (≈ 288 µM) | 100 µg/mL (≈ 288 µM) | 100 µg/mL (≈ 288 µM) | 100 µg/mL (≈ 288 µM) |  |
| COC(=O)NN=Cc1c(C(=O)NC2CCCCC2)[n+]([O-])c2ccccc2[n+]1[O-] [Example 16] |  | 100 µg/mL (≈ 258 µM) | 100 µg/mL (≈ 258 µM) | 100 µg/mL (≈ 258 µM) | 100 µg/mL (≈ 258 µM) | 100 µg/mL (≈ 258 µM) |  | 100 µg/mL (≈ 258 µM) | 100 µg/mL (≈ 258 µM) | 100 µg/mL (≈ 258 µM) | 100 µg/mL (≈ 258 µM) | 100 µg/mL (≈ 258 µM) | 100 µg/mL (≈ 258 µM) |  |  |  |  |
| COC(=O)NN=Cc1c(C(=O)NC(C)C)[n+]([O-])c2ccccc2[n+]1[O-] [Example 17] | 100 µg/mL (≈ 288 µM) | 10 µg/mL (≈ 28.8 µM) | 100 µg/mL (≈ 288 µM) | 100 µg/mL (≈ 288 µM) | 100 µg/mL (≈ 288 µM) | 100 µg/mL (≈ 288 µM) |  | 100 µg/mL (≈ 288 µM) | 100 µg/mL (≈ 288 µM) | 100 µg/mL (≈ 288 µM) | 100 µg/mL (≈ 288 µM) | 100 µg/mL (≈ 288 µM) | 100 µg/mL (≈ 288 µM) | 100 µg/mL (≈ 288 µM) | 100 µg/mL (≈ 288 µM) | 100 µg/mL (≈ 288 µM) |  |
| O=C(NCCO)c1c(C=NO)[n+]([O-])c2ccccc2[n+]1[O-] [Example 20] |  |  |  |  | 100 µg/mL (≈ 342 µM) | 100 µg/mL (≈ 342 µM) |  | 100 µg/mL (≈ 342 µM) | 100 µg/mL (≈ 342 µM) | 100 µg/mL (≈ 342 µM) | 100 µg/mL (≈ 342 µM) | 100 µg/mL (≈ 342 µM) | 100 µg/mL (≈ 342 µM) | 100 µg/mL (≈ 342 µM) |  |  | Relative Weight Increase (%) after 14 days (Chick Fattening Test; Test 1, 50 ppm in feed): 107.4%; Absolute Weight Increase (g) of each animal after 14 days (Chick Fattening Test; Test 1, 50 ppm in feed, control 111.5): 119.9 g; Average Weight of each animal after 14 days (Chick Fattening Test; Test 1, 50 ppm in feed, control 170.8, initial weight 59.3 g): 179.2; Relative Weight Increase (%) after 28 days (Chick Fattening Test; Test 1, 50 ppm in feed): 104.1%; Absolute Weight Increase (g) of each animal after 28 days (Chick Fattening Test; Test 1, 50 ppm in feed, control 275.9): 287.3 g; Average Weight of each animal after 28 days (Chick Fattening Test; Test 1, 50 ppm in feed, control 335.2, initial weight 59.3 g): 346.6; Relative Weight Increase (%) after 14 days (Chick Fattening Test; Test 2, 10 ppm in feed): 104.5%; Absolute Weight Increase (g) of each animal after 14 days (Chick Fattening Test; Test 2, 10 ppm in feed, control 109.2): 114.2 g; Average Weight of each animal after 14 days (Chick Fattening Test; Test 2, 10 ppm in feed, control 168.3, initial weight 59.1 g): 173.3; Relative Weight Increase (%) after 28 days (Chick Fattening Test; Test 2, 10 ppm in feed): 102.2%; Absolute Weight Increase (g) of each animal after 28 days (Chick Fattening Test; Test 2, 10 ppm in feed, control 292.5): 299.2 g; Average Weight of each animal after 28 days (Chick Fattening Test; Test 2, 10 ppm in feed, control 351.6, initial weight 59.1 g): 358.3; Relative Weight Increase (%) after 14 days (Chick Fattening Test; Test 2, 20 ppm in feed): 106.8%; Absolute Weight Increase (g) of each animal after 14 days (Chick Fattening Test; Test 2, 20 ppm in feed, control 109.2): 116.7 g; Average Weight of each animal after 14 days (Chick Fattening Test; Test 2, 20 ppm in feed, control 168.3, initial weight 59.1 g): 175.8; Relative Weight Increase (%) after 28 days (Chick Fattening Test; Test 2, 20 ppm in feed): 102.8%; Absolute Weight Increase (g) of each animal after 28 days (Chick Fattening Test; Test 2, 20 ppm in feed, control 292.5): 300.9 g; Average Weight of each animal after 28 days (Chick Fattening Test; Test 2, 20 ppm in feed, control 351.6, initial weight 59.1 g): 360.0 |
